ChEMBL document CHEMBL1201862, “PubChem BioAssay data set” (2004)
The source made the active and inactive calls.

What was measured:
A549 = experiment: viability loss in A549 cells – cell-based, plate reader, cherry-pick samples, cytotoxicity control, dose response (AID 687028); assay type: functional; settings: Homo sapiens
[1] = viability of uninfected HEp-2 cells – cell-based, HTS, cytotoxicity control for RSV inhibitor project, dose response (AID 2410); assay type: functional; settings: human respiratory syncytial virus
[2] = molecular target: T1, DNA repair and recombination protein RAD54-like (Homo sapiens, UniProt Q92698); experiment: RAD54 Holliday junction migration blockers – biochemical, fluorescence, cherry-picked samples, dose series, confirmation (AID 651657); assay type: functional
T1 sequence (Q92698 whole entry): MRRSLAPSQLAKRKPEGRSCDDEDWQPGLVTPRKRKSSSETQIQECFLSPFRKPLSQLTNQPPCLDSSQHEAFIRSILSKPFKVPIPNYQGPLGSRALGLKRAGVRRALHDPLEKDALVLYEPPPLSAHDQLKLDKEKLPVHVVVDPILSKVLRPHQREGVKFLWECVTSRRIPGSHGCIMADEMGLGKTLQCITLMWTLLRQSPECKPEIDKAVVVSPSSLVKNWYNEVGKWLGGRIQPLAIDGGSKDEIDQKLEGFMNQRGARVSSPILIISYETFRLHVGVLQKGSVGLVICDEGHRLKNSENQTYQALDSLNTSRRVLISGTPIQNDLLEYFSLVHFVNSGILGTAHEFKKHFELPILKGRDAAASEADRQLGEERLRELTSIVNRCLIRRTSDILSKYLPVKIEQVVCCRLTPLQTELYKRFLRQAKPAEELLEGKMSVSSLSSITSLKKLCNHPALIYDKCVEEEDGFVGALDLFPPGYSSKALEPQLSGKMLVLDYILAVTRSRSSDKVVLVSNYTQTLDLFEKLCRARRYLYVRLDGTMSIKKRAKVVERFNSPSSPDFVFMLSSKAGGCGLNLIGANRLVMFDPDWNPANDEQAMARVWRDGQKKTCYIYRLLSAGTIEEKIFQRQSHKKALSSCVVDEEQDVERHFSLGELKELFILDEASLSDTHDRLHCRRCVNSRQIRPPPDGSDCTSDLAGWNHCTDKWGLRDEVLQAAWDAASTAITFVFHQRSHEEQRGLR

Vero = experiment: mammalian cell viability reduction – secondary assay, cytotoxicity control for West Nile virus antiviral project, dose response (AID 1650); assay type: functional; settings: Chlorocebus sabaeus
[3] = cytotoxicity toward MDA-MB-231 breast cancer cells – cell-based, CellTiter-Glo luminescence, cherry-pick, cytotoxicity control for RAD54 inhibitor project, dose response (AID 651692); assay type: functional
[4] = cytotoxicity in HEK293 background cells – cell-based, dry powder, set 2, counter-screen for EBV LMP1 inhibitor project, dose response (AID 624374); assay type: functional
[5] = viability loss in LCL cells – cell-based, plate reader, dry powder, set 2, cytotoxicity control, dose response (AID 624367); assay type: functional
Beta Lactamase [6] = molecular target: T2, Beta Lactamase (Pseudomonas aeruginosa, UniProt Q932Y6); experiment: concentration-dependent VIM-2 enzyme inhibition – biochemical, epi-absorbance readout, selective inhibitors, dose response (AID 1919)
T2 sequence (Q932Y6 whole entry): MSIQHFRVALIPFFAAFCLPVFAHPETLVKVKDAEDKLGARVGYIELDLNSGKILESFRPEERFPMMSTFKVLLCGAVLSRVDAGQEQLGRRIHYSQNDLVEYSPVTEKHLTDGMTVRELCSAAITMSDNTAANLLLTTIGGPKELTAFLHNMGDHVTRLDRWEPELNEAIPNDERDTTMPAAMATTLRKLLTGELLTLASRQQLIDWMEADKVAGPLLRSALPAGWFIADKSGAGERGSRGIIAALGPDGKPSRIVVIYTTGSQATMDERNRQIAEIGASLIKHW

Beta-lactamase [7] = molecular target: Beta-lactamase (Salmonella choleraesuis (strain SC-B67), UniProt Q5J463); experiment: Epi-absorbance-based counterscreen for selective VIM-2 inhibitors: dose response biochemical high throughput screening assay to identify inhibitors of TEM-1 serine-beta-lactamase.
Sequence of Beta-lactamase (Salmonella choleraesuis (strain SC-B67), UniProt Q5J463) (Q5J463 whole entry): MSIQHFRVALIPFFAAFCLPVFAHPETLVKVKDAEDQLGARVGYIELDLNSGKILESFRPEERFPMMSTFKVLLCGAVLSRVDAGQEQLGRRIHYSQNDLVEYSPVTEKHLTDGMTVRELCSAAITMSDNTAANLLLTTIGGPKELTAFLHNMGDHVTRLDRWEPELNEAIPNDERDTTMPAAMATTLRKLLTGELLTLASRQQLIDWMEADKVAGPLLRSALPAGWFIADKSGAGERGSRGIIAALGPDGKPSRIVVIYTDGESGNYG

Beta Lactamase [8] = molecular target: T2, Beta Lactamase; experiment: VIM-2 CCF2 hydrolysis inhibition, assay artifact filter – biochemical, FRET readout, CCF2 substrate, artefact control for selective VIM-2 inhibitor project, dose response (AID 1926)
Beta-lactamase [9] = molecular target: T3, Beta-lactamase (Pseudomonas aeruginosa, UniProt Q79MP6); experiment: inhibition of IMP-1 beta-lactamase activity – biochemical, epi-absorbance, selectivity assay for VIM-2 inhibitor project, dose response (AID 1920)
T3 sequence (Q79MP6 whole entry): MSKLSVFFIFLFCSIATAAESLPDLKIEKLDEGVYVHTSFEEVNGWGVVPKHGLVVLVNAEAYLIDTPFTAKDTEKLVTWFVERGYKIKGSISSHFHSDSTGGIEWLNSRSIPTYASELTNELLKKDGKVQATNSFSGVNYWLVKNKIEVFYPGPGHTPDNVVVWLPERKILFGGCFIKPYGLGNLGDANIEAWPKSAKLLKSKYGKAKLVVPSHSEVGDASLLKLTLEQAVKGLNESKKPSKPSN

Beta-lactamase [10] = molecular target: T3, Beta-lactamase; experiment: […] counterscreen for selective VIM-2 inhibitors: dose response biochemical high throughput screening assay to identify inhibitors of IMP-1 metallo-beta-lactamase.
[11] = molecular target: T4, Sentrin-specific protease 1 (Homo sapiens, UniProt Q9P0U3); experiment: Dose response confirmation of small molecule inhibitors of the catalytic domain of the SUMO protease, SENP1 in a FRET assay.; assay type: functional; settings: read-out: IC50_Mean
T4 sequence (Q9P0U3 whole entry, the tested form may be a part): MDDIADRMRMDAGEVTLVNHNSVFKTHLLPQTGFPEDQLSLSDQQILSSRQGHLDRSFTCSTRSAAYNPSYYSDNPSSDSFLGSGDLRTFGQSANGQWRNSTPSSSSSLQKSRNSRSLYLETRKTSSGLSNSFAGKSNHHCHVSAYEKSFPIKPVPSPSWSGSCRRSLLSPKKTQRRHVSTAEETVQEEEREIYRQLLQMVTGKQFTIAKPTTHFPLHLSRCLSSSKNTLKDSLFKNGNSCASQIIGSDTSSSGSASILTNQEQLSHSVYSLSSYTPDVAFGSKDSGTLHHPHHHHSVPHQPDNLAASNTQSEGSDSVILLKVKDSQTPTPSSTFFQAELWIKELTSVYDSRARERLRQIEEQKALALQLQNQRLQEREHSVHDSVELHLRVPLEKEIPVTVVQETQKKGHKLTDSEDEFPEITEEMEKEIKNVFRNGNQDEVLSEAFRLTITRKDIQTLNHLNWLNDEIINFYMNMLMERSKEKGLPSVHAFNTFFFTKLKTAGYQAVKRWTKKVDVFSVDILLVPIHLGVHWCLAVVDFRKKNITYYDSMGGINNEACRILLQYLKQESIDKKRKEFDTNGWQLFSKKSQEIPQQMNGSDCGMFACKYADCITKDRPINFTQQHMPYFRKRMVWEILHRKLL

[12] = molecular target: T4, Sentrin-specific protease 1; experiment: SENP1 catalytic domain blockers, concentration series – biochemical, kinetic FRET, dose response (AID 651697); assay type: functional; settings: read-out: IC50_Mean
[13] = activation of miR-122 Renilla sensor silencing – cell-based, Huh7 psiCHECK-miR122, Renilla luciferase, cherry-picked, dose response (AID 651956); assay type: functional;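 further: huh7 hepatoma cells stably carrying a psiCHECK-2 miR-122 sensor plasmid; renilla luciferase signal reporting endogenous miR-122 activity after 48 h compound exposure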

SMILES: CN1CCCC1CCNc1ccc2sc3ccccc3c(=O)c2c1 (stereo unspecified)
- AC50 (A549): 20.2 µM (active)
- CC50 [1]: 11.5 µM (active)
- AC50 [2]: 13.6 µM (active)
- CC50 (Vero): 21.1 µM (active)
- AC50 [3]: 48.8 µM (active)

SMILES: Cc1noc(C)c1S(=O)(=O)Nc1ccc2c(c1)C(=O)N([C@@H](C)CO)C[C@@H](C)[C@@H](CN(C)Cc1ccc(C(F)(F)F)cc1)OCCCC[C@H](C)O2
- AbsAC35 [4]: 54.05 µM
- AbsAC35 [5]: 52.95 µM

SMILES: O=C(C1=C(O)C(=O)N(Cc2cccnc2)C1c1ccccn1)c1ccccc1 (stereo unspecified)
- IC50 (Beta Lactamase [6]): 5 µM (active)
- IC50 (Beta-lactamase [7]): > 59.6 µM (inactive)
- IC50 (Beta Lactamase [8]): 2.17 µM (active)
- IC50 (Beta-lactamase [9]): > 59.6 µM (inactive)
- IC50 (Beta-lactamase [10]): > 59.6 µM (inactive)

SMILES: COc1ccc(-c2ccc3c(c2)S(=O)(=O)c2cccc(C(=O)NCCOc4ccccc4)c2C3=O)cc1OC
- IC50 [11]: 8.3 µM (active)
- CC50 [1]: 46.1 µM (active)
- IC50 [12]: 10.5 µM (active)

SMILES: CC(C)(C)c1ccc(S(=O)(=O)NCCc2ccncc2)cc1
- AC50 [13]: 25 µM (active)
